Like-named read-outs stand apart in the source and are kept apart here.
Tests used:
[1] = Oral bioavailability in male Sprague-Dawley rats, compound alone or with excipient in water pH 8 by oral gavage; plasma by LC-MS/MS; type: in vivo; conditions: for Bioavailability (% F): oral gavage
Description: The influence of different excipients on the bioavailability of Compound 2 was investigated in Sprague Dawley rats. The excipients tested were Solutol HS 15, soy L-α-phosphatidylcholine, trisodium citrate, sodium caprate, disodium EDTA, and sodium phytate. Generally, 10-30 mg of Compound 2 and the indicated quantity (Table 5) of excipient was combined and dissolved in 5 mL water. The pH was adjusted to a pH of 8 using HCl or NaOH as needed.
Male Sprague-Dawley rats, weighing between 0.27 to 0.32 kg, were fasted overnight prior to dose administration through approximately 4 hours post-dose. Compound 2 was administered orally by orogastric gavage at 5 mL/kg. Blood samples were collected via femoral vein at designated time points, and centrifuged to obtain plasma.
(§1) Plasma samples obtained at each time point from the subjects were prepared by protein precipitation. An aliquot of 50 μL sample was added with 150 μL acetonitrile containing an internal standard ([(2R,3S,4R,5R)-5-[2-chloro-6-(cyclopentylmethylamino)purin-9-yl]-3,4-dihydroxyoxolan-2-yl]methoxymethylphosphonic acid, 200 ng/mL in Acetonitrile). The mixture was vortexed for 15 min and then centrifuged at 4500 rpm for 15 min at 4° C. (Sorvall Legend XTR centrifuge, Thermo Scientific, Langenselbold, Germany). 80 μL of the resulting supernatant was transferred into a new plate and mixed with 160 μL water followed by LC-MS/MS analysis.
• API 4000 mass spectrometer (Applied Biosystems, Foster City, Calif.) • Shimadzu Nexera X^2 UHPLC System (Shimadzu Scientific Instruments, Canby, Oreg.) Column: SHISEIDO CAPCELL PAK INERT ADME S3 (2.00 mm×50 mm, Part No. 79001) Mobile Phase A: 8.6 mM Triethylamine, 100 mM HFIP (1,1 1,3,3,3-Hexafluoro-2-propanol) in Water Mobile Phase B: 8.6 mM Triethylamine, and 100 mM HFIP in [Acetonitrile:water (95:5, v/v) Needle wash (weak & strong): Acetone: MeCN: Water (80:20:20, v/v/v) Flow Rate: 0.50 mL/min
• Ionization Mode: Electrospray (ESI) • Detection Mode: Negative MRM (Q1/Q3 transitions: m/z 562.2/157.0 for Compound 2; m/z 584.0/157.0 for Internal Standard)

[2] = Oral exposure in cynomolgus monkeys, compound alone or with excipient in capsules; plasma by LC-MS/MS; type: in vivo; conditions: for AUC(0-inf) / Cmax: male, cynomolgus monkey, plasma, po, 50 mg, enteric capsules; for Cmax: read-out: Cmax
Description: The influence of different excipients on the bioavailability of Compound (Ia), Compound 2 and Compound 3 in cynomolgus monkeys was investigated. The excipients tested were sodium phytate, sodium citrate, sodium EDTA, cyclodextrin, sodium taurocholate, sodium polystyrene sulfate, sodium caprate, sodium phosphate, carbomer 971P and palmitoyl carnitine chloride. Generally, an appropriate quantity (as indicated in Table 1) of Compound (Ia), Compound 2 or Compound 3 and an excipient were mixed to homogeneity and transferred to capsules for dosing. In one example, Compound (Ia) (500 mg assay, 1.063 correction factor applied for to account for purity) and 2.75 g of sodium phytate (Sigma) were combined in a mortar and pestle. The mixture was ground to homogeneity then 530 mg of the white powder was transferred to enteric capsules (Size 0) prior to dosing.
[…] Compound (Ia), Compound 2 or Compound 3, either alone, or with excipient, in an enteric capsule was administered via an oral pet piller. Blood samples were collected from a peripheral vessel at designated time points, and centrifuged to obtain plasma.
as §1, with “([[[(2R,3S,4R,5R)-5-[6-chloro-4-[[(1S)-2,2,2-trideuterio-1-(2-fluorophenyl)ethyl]amino]pyrazolo[3,4-b]pyridin-1-yl]-3,4-dihydroxyoxolan-2-yl]-dideuteriomethoxy]-hydroxyphosphoryl]methylphosphonic” for “([(2R,3S,4R,5R)-5-[2-chloro-6-(cyclopentylmethylamino)purin-9-yl]-3,4-dihydroxyoxolan-2-yl]methoxymethylphosphonic”
• API 4000 mass spectrometer (Applied Biosystems, Foster City, Calif.) • Shimadzu Nexera X^2 UHPLC System (Shimadzu Scientific Instruments, Canby, Oreg.) Column: SHISEIDO CAPCELL PAK INERT ADME S3 (2.00 mm×50 mm, Part No. 79001) Mobile Phase A: 8.6 mM Triethylamine, 100 mM HFIP (1,1,1,3,3,3-Hexafluoro-2-propanol) in Water Mobile Phase B: 8.6 mM Triethylamine, and 100 mM HFIP in [Acetonitrile:water (95:5, v/v) Needle wash (weak & strong): Acetone:MeCN:Water (80:20:20, v/v/v) Flow Rate: 0.50 mL/min HPLC Gradient:
• Ionization Mode: Electrospray (ESI) • Detection Mode: Negative MRM (Q1/Q3 transitions: m/z 579.0/157.0 for Compound (Ia) or Compound 3; m/z 584.0/157.0 for Internal Standard); (Q1/Q3 transitions m/z 562.2/157.0 for Compound 2; m/z 584.0/157.0 for Internal Standard)

[3] = Table 3: dose 50 mg, dosed with 195 mg trisodium citrate and 3 mg SDS
[4] = Table 4: dose 50 mg, dosed with 275 mg sodium phytate

C[C@H](Nc1nc(Cl)nc2c1cnn2[C@@H]1O[C@H](COP(=O)(O)CP(=O)(O)O)[C@@H](O)[C@H]1O)c1ccccc1 [Compound 2]
Oral bioavailability using calcium chelating excipients ([1]; SD rats, 10-30 mg/kg + excipient in water at pH 8 via oral gavage, 5 mL/kg): Improved
Bioavailability (% F) ([1]; 10 mg/kg, excipient: Sodium phytate (Sigma) 165 mg/SDS 2 mg): 2.0 % F
Bioavailability (% F) ([1]; 10 mg/kg, excipient: Sodium phytate (Sigma, ≥5 mol sodium/mol) 165 mg): 2.3 % F
Bioavailability (% F) ([1]; 10 mg/kg, excipient: Trisodium citrate 64.5 mg/sodium caprate 49 mg): 0.23 % F
Bioavailability (% F) ([1]; 30 mg/kg, excipient (mg/kg): Solutol HS 15, 1,500): 0.015 % F
Bioavailability (% F) ([1]; 30 mg/kg, excipient: Disodium EDTA 5 mg): 0.60 % F
Bioavailability (% F) ([1]; 30 mg/kg, excipient: Disodium EDTA 20 mg): 2.8 % F
Bioavailability (% F) ([1]; 30 mg/kg, excipient: None): 0.03 % F
Bioavailability (% F) ([1]; 30 mg/kg, excipient: Soy L-α-phosphatidylcholine 150 mg): 0.07 % F
Bioavailability (% F) ([1]; 30 mg/kg, excipient: Trisodium citrate 20 mg): 0.10 % F
Bioavailability (% F) ([1]; 30 mg/kg, excipient: Trisodium citrate 64.5 mg): 0.60 % F
Oral bioavailability using calcium chelating excipients ([2]; cynomolgus monkeys, capsules, versus compound alone): Improved
AUC(0-inf) [2, 3]: 67100 ng·h/mL
Cmax [2, 3]: 2530 ng/mL
AUC(0-inf) [2, 4]: 105000 ng·h/mL
Cmax [2, 4]: 2320 ng/mL

Source: patent US11633416B1, “Oral formulations of CD73 compounds” (ARCUS BIOSCIENCES, INC., priority 2020, dated 2023)
